ChEMBL document CHEMBL5614376, “Discovery of MT-1207: A Novel, Potent Multitarget Inhibitor as a Promising Clinical Candidate for the Treatment of Hypertension” (J Med Chem, 2024)

Tests used:
[1] = system: Rattus norvegicus; experiment: Antihypertensive activity in 2K2C renovascular hypertensive Sprague-Dawley rat model assessed as systolic blood pressure at 10 mg/kg, po measured after 9 weeks (Rvb ~ 202 mmHg); type: functional
[2] = AUC (0 to t) in Sprague-Dawley rat at 1 mg/kg, po measured for 24 hrs by UPLC/MS/MS analysis; type: ADME, organism-based; conditions: in vivo
[3] = Toxicity in Sprague-Dawley rat at 10 to 100 mg/kg, po qd treated for 13 weeks; type: organism-based; conditions: in vivo, dose 10-100 mg/kg
[4] = Toxicity in male Sprague-Dawley rat assessed as reduction in body weight at 100 mg/kg, po qd treated for 4 days consecutively; type: organism-based; design: scale not given: the % may be the effect or the level left; conditions: in vivo, 96 h, time 4 day
[5] = biological target: 5-hydroxytryptamine receptor 2A (Homo sapiens, UniProt P28223); experiment: Displacement of [3H]Ketanserin from recombinant human 5-HT2A receptor extracted from CHO cell membrane at 100 nM incubated for 60 mins by radioligand binding assay relative to control; type: cell membranes; conditions: filed as antagonist
5-hydroxytryptamine receptor 2A, sequence (P28223 whole entry): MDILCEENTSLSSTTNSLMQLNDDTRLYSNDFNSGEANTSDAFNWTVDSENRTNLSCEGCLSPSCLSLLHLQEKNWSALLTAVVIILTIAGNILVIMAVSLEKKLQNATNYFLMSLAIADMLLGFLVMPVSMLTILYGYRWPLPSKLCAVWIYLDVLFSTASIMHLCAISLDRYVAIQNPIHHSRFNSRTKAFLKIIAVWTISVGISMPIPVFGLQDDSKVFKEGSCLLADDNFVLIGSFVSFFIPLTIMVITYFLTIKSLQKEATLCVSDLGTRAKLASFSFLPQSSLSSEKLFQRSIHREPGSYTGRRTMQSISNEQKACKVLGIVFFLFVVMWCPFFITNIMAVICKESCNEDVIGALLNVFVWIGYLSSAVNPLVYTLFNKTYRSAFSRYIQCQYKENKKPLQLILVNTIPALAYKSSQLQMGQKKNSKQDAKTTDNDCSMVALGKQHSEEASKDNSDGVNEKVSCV

[6] = Apparent oral clearance in Sprague-Dawley rat at 9 mg/kg, po measured for 24 hrs by UPLC/MS/MS analysis; type: ADME, organism-based; conditions: in vivo
[7] = Tmax in female Sprague-Dawley rat at 30 mg/kg, po qd treated for 13 weeks consecutively measured after recovery period on day 91 by UP/LC/MS/MS analysis; type: ADME, organism-based; conditions: in vivo, time 91 day
[8] = system: Rattus norvegicus; experiment: Effect on postural hypotension in Sprague-Dawley rat assessed as change in systolic blood pressure at 5 mg/kg, po treated for >30 mins followed by induction of postural hypotension measured 60 secs after postural change (reference value: 127 +/- 10 mmHg); type: functional; conditions: time > 31 min
[9] = AUC (0 to t) in male Sprague-Dawley rat at 10 mg/kg, po measured on day 1 by UP/LC/MS/MS analysis; type: ADME, organism-based; conditions: in vivo, time 1 day
[10] = AUC (0 to t) in female Sprague-Dawley rat at 100 mg/kg, po qd treated for 13 weeks consecutively measured after recovery period on day 91 by UP/LC/MS/MS analysis; type: ADME, organism-based; conditions: in vivo, time 91 day
[11] = Toxicity in male Sprague-Dawley rat assessed as reduction in body weight at 30 mg/kg, po qd treated for 11 days consecutively; type: organism-based; design: scale not given: the % may be the effect or the level left; conditions: in vivo, 264 h, time 11 day
[12] = system: Rattus norvegicus; experiment: Effect on postural hypotension in Sprague-Dawley rat assessed as change in systolic blood pressure at 10 mg/kg, po treated for >30 mins followed by induction of postural hypotension measured 40 secs after postural change (reference value: 128 +/- 11 mmHg); type: functional; conditions: time > 30.67 min, 0.5112 h
[13] = Tmax in female Sprague-Dawley rat at 100 mg/kg, po measured on day 1 by UP/LC/MS/MS analysis; type: ADME, organism-based; conditions: in vivo, time 1 day
[14] = Toxicity in Sprague-Dawley rat assessed as drug tolerance at 10 to 100 mg/kg, po qd treated for 13 weeks; type: organism-based; conditions: in vivo, 2184 h, dose 10-100 mg/kg
[15] = Apparent oral clearance in Sprague-Dawley rat at 3 mg/kg, po measured for 24 hrs by UPLC/MS/MS analysis; type: ADME, organism-based; conditions: in vivo
[16] = AUC (0 to t) in male Sprague-Dawley rat at 30 mg/kg, po qd treated for 13 weeks consecutively measured after recovery period on day 91 by UP/LC/MS/MS analysis; type: ADME, organism-based; conditions: in vivo, time 91 day
[17] = system: Rattus norvegicus; experiment: Effect on postural hypotension in Sprague-Dawley rat assessed as change in systolic blood pressure at 5 mg/kg, po treated for >30 mins followed by induction of postural hypotension measured 5 secs after postural change (reference value: 126 +/- 12 mmHg); type: functional; conditions: time > 30.08 min, 0.5013 h
[18] = system: Rattus norvegicus; experiment: Effect on postural hypotension in Sprague-Dawley rat assessed as change in systolic blood pressure at 2.5 mg/kg, po treated for >30 mins followed by induction of postural hypotension measured immediately after postural change (reference value: 131 +/- 9 mmHg); type: functional; conditions: 0.5 h
[19] = AUC (0 to t) in female Sprague-Dawley rat at 100 mg/kg, po measured on day 1 by UP/LC/MS/MS analysis; type: ADME, organism-based; conditions: in vivo, time 1 day
[20] = Acute toxicity in Sprague-Dawley rat assessed as change in morphology of animal at 250 to 1000 mg/kg, po single administration measured for 14 days; type: organism-based; conditions: in vivo, 336 h, dose 250-1000 mg/kg, time 14 day
[21] = Cmax in male Sprague-Dawley rat at 100 mg/kg, po measured on day 1 by UP/LC/MS/MS analysis; type: ADME, organism-based; conditions: in vivo, time 1 day
[22] = Cmax in male Sprague-Dawley rat at 10 mg/kg, po measured on day 1 by UP/LC/MS/MS analysis; type: ADME, organism-based; conditions: in vivo, time 1 day
[23] = AUC (0 to t) in female Sprague-Dawley rat at 10 mg/kg, po qd treated for 13 weeks consecutively measured after recovery period on day 91 by UP/LC/MS/MS analysis; type: ADME, organism-based; conditions: in vivo, time 91 day
[24] = AUC (0 to t) in male Sprague-Dawley rat at 30 mg/kg, po measured on day 1 by UP/LC/MS/MS analysis; type: ADME, organism-based; conditions: in vivo, time 1 day
[25] = Tmax in female Sprague-Dawley rat at 10 mg/kg, po qd treated for 13 weeks consecutively measured after recovery period on day 91 by UP/LC/MS/MS analysis; type: ADME, organism-based; conditions: in vivo, time 91 day
[26] = Apparent volume of distribution during terminal phase in Sprague-Dawley rat at 9 mg/kg, po measured for 24 hrs by UPLC/MS/MS analysis; type: ADME, organism-based; conditions: in vivo, read-out: Vz/F
[27] = Toxicity in Sprague-Dawley rat assessed as change in body weight at 100 mg/kg, po qd treated for 13 weeks consecutively measured post-cessation of treatment; type: organism-based; conditions: in vivo, 2184 h
[28] = system: Rattus norvegicus; experiment: Effect on postural hypotension in Sprague-Dawley rat assessed as change in systolic blood pressure at 5 mg/kg, po treated for >30 mins followed by induction of postural hypotension measured immediately after postural change (reference value: 131 +/- 9 mmHg); type: functional; conditions: 0.5 h
[29] = Plasma protein binding in Sprague-Dawley rat at 1 uM incubated for 30 mins; type: ADME, cell-free; conditions: read-out: PPB (converted)
[30] = Metabolic stability in rat liver microsomes assessed as drug metabolism at 10 umol/L incubated upto 120 mins in presence of NADPH by LC-MS/MS analysis; type: ADME, Microsome; conditions: 2 h, 10 µM, dose 10 µmol/L
[31] = Metabolic stability in rat plasma assessed as enzymatic hydrolysis at 50 to 10000 ng/ml incubated upto 120 mins; type: ADME, cell-free; conditions: 2 h, dose 50-10000 ng/ml
[32] = Tmax in Sprague-Dawley rat at 9 mg/kg, po measured for 24 hrs by UPLC/MS/MS analysis; type: ADME, organism-based; conditions: in vivo
[33] = Cmax in Sprague-Dawley rat at 1 mg/kg, iv measured for 24 hrs by UPLC/MS/MS analysis; type: ADME, organism-based; conditions: in vivo
[34] = Cmax in Sprague-Dawley rat at 1 mg/kg, po measured for 24 hrs by UPLC/MS/MS analysis; type: ADME, organism-based; conditions: in vivo
[35] = Toxicity in Sprague-Dawley rat assessed as notable drug-related change at 10 to 100 mg/kg, po qd treated for 13 weeks consecutively measured after 4 week recovery period; type: organism-based; conditions: in vivo, 2856 h, dose 10-100 mg/kg, time 17 weeks

Structure (SMILES): Cl.c1ccc2c(c1)nnn2CCCCN1CCN(c2nsc3ccccc23)CC1
- Activity [1]: 169 mmHg
- AUC(0-t) at 24 h [2]: 51.7 ng·h/mL
- NOAEL at 2184 h [3]: 100 mg/kg
- Activity [4]: ~ 5.4%
- inhibition [5]: 99%
- CL/F [6]: 587 mL/min
- Tmax [7]: 1 h
- Activity [8]: 83 mmHg
- AUC(0-t) at 24 h [9]: 44.5 ng·h/mL
- AUC(0-t) at 2184 h [10]: 7450 ng·h/mL
- Activity [11]: ~ 3.3%
- Activity [12]: 85 mmHg
- Tmax [13]: 2 h
- Activity [14]: Non-Toxic
- CL/F [15]: 130 mL/min
- AUC(0-t) at 2184 h [16]: 672 ng·h/mL
- Activity [17]: 79 mmHg
- Activity [18]: 96 mmHg
- AUC(0-t) at 24 h [19]: 7910 ng·h/mL
- Activity [20]: Non-Toxic
- Cmax [21]: 347 ng/mL
- Cmax [22]: 19.2 ng/mL
- AUC(0-t) at 2184 h [23]: 439 ng·h/mL
- AUC(0-t) at 24 h [24]: 318 ng·h/mL
- Tmax [25]: 1 h
- Vd/F [26]: 78.9 L
- Activity [27]: Non-Toxic
- Activity [28]: 89 mmHg
- fraction unbound at 0.5 h, 1 µM [29]: 0.019
- Drug metabolism [30]: Metabolite_Detected
- Stability [31]: Stable
- Tmax [32]: 0.65 h
- Cmax [33]: 468 ng/mL
- Cmax [34]: 33.3 ng/mL
- Activity [35]: Non-Toxic
